Measured values published in patent US10647680B2, “Urea compound, preparation method therefor and medical use thereof” (Ancureall Pharmaceutical (Shanghai) Co., Ltd., priority 2016, dated 2020).
“And” between values parts separate entries of the source, which are not always exact repeats. Identical values can stand only once. Counter-ions that a name gives are not always drawn. Like-named read-outs stand apart in the source and are kept apart here.

Assay: In vivo pharmacokinetics in rats
Parameters: species or system rat
Method: The pharmacokinetic experiments in rats were performed using compound 77 of the present invention as a representative example.
Procedure: 6 SD male rats (˜200 g, purchased from Shanghai Sippr-BK Experimental Animal Co., Ltd) were selected and divided into two groups according to the experimental design table (Table 9). Animals were administered intravenously and orally. Dosing was performed once on the treating day and the doses were 5 mg/kg and 10 mg/kg, respectively.
Drug formulation method: the required amount of test sample was added to a certain volume of 40% (HP-β-CD) aqueous solution, and then stirred under heating (temperature 25-45° C.) until dissolution, then the same volume of deionized water was added and adjusted to pH 5 with NaOH, to prepare 20% HP-β-CD clear aqueous solution.
For the intravenous administration group, blood samples were taken from jugular veins before administration and 2 min, 5 min, 15 min, 30 min, 1 h, 2 h, 4 h, 6 h, 8 h, and 24 h after administration; for the oral administration group, blood samples were taken from jugular veins before administration and 5 min, 30 min, 1 h, 2 h, 4 h, 6 h, 8 h, 10 h, and 24 h. The collected blood samples were centrifuged to separate plasma within 30 min (centrifugation condition: 8000 rpm, 6 minutes, 2-8° C.). The plasma samples were stored at −80° C. in a freezer before assay. The plasma samples were used for LC-MS/MS method development and sample testing.
The pharmacokinetic parameters (AUC(0-t), AUC(0-∞), T1/2, MRT(0-∞), Cmax, Tmax and F) were calculated using WinNonlin Professional v5.2 (Pharsight USA). In addition, the bioavailability (F) was calculated by the following formula.

[1] = SD rats, intravenously, 5 mg/kg, individual animals 101-103, listed as methanesulfonate of compound 77, 5 mg/kg
[2] = SD rats, orally, 10 mg/kg, individual animals 201-203, listed as methanesulfonate of compound 77, 10 mg/kg
[3] = male, SD, rat, plasma, iv, 5 mg/kg, intravenously, Mean
[4] = male, SD, rat, plasma, iv, 5 mg/kg, intravenously, individual animals 101-103
[5] = male, SD, rat, plasma, po, 10 mg/kg, orally, Mean
[6] = male, SD, rat, plasma, po, 10 mg/kg, orally, individual animals 201-203

In the case of `COCCOc1ccc2c(c1)ncn2-c1ccc(NC(=O)Nc2cc(C(C)(C)C)n[nH]2)cc1` [Compound 77 Mesylate, 1-(5-tert-butyl-2H-pyrazol-3-yl)-3-{4-[5-(2-methoxyl-ethoxyl)-benzimidazol-1-yl]-phenyl}-urea], the “AUC(0-t)” value [1] is reported as 14458 ng·h/mL and 13825 ng·h/mL, the “AUC(0-∞)” value [1] is reported as 14501 ng·h/mL and 13969 ng·h/mL and the CL [1] is reported as 5.75 mL/min/kg and 5.97 mL/min/kg. For the same compound, the Cmax [1] was 20795 ng/mL and 17312 ng/mL, the “MRT(0-t)” value [1] was 3.86 h and 4.21 h and the Vss [1] was 1.355 L/kg and 1.599 L/kg. For the same compound, the Vz [1] was 1.473 L/kg and 2.01 L/kg, the t½ [1] was 2.96 h and 3.89 h and the “AUC(0-t)” value [2] was 7249 ng·h/mL and 6927 ng·h/mL. The “AUC(0-∞)” value [2] was 7294 ng·h/mL and 7067 ng·h/mL, the Cmax [2] was 1082 ng/mL and 1095 ng/mL and the “MRT(0-t)” value [2] was 5.07 h and 5.45 h. For the same compound, the t½ [2] was 3.36 h and 4.53 h, the AUC(0-t) (male, SD, rat, plasma, iv, 5 mg/kg, administered intravenously, 5 mg/kg, read-out: AUC(0-t)) was 14400 ng·h/mL and the Cmax (male, SD, rat, plasma, iv, 5 mg/kg, administered intravenously, 5 mg/kg, read-out: Cmax) was 18700 ng/mL. It also gave an AUC(0-t) (male, SD, rat, plasma, iv, 5 mg/kg, intravenously, 5 mg/kg, Mean, read-out: AUC(0-t)) of 14400 ng·h/mL, a Cmax (male, SD, rat, plasma, iv, 5 mg/kg, intravenously, 5 mg/kg, Mean, read-out: Cmax) of 18700 ng/mL and an MRT inf (male, SD, rat, plasma, iv, 5 mg/kg, intravenously, 5 mg/kg, Mean, read-out: MRT (0-∞)) of 4.27 h. The MRT last (male, SD, rat, plasma, iv, 5 mg/kg, intravenously, 5 mg/kg, Mean, read-out: MRT(0-t)) was 4.03 h, the Vd (male, SD, rat, plasma, iv, 5 mg/kg, intravenously, 5 mg/kg, Mean, read-out: Vss) was 1.47 L/kg and the Vd (male, SD, rat, plasma, iv, 5 mg/kg, intravenously, 5 mg/kg, Mean, read-out: Vz) was 1.8 L/kg. The half-life (male, SD, rat, plasma, iv, 5 mg/kg, intravenously, 5 mg/kg, Mean, read-out: t½ (converted)) was 3.62 h, the AUC(0-t) (male, SD, rat, plasma, iv, 5 mg/kg, intravenously, 5 mg/kg, individual animals 101-103, read-out: AUC(0-t)) was 14900 ng·h/mL and the Cmax (male, SD, rat, plasma, iv, 5 mg/kg, intravenously, 5 mg/kg, individual animals 101-103, read-out: Cmax) was 18000 ng/mL. It also gave an MRT inf (male, SD, rat, plasma, iv, 5 mg/kg, intravenously, 5 mg/kg, individual animals 101-103, read-out: MRT (0-∞)) of 4.42 h, an MRT last (male, SD, rat, plasma, iv, 5 mg/kg, intravenously, 5 mg/kg, individual animals 101-103, read-out: MRT(0-t)) of 4.04 h and a Vd (male, SD, rat, plasma, iv, 5 mg/kg, intravenously, 5 mg/kg, individual animals 101-103, read-out: Vss) of 1.46 L/kg. The Vd (male, SD, rat, plasma, iv, 5 mg/kg, intravenously, 5 mg/kg, individual animals 101-103, read-out: Vz) was 1.91 L/kg, the half-life (male, SD, rat, plasma, iv, 5 mg/kg, intravenously, 5 mg/kg, individual animals 101-103, read-out: t½ (converted)) was 4.01 h and the AUC(0-inf) [3] was 14500 ng·h/mL. For the same compound, the clearance [3] was 5.73 mL/min/kg, the AUC(0-inf) [4] was 15200 ng·h/mL and the clearance [4] was 5.5 mL/min/kg. The AUC(0-t) (male, SD, rat, plasma, po, 10 mg/kg, administered orally, 10 mg/kg, read-out: AUC(0-t)) was 6770 ng·h/mL, the Cmax (male, SD, rat, plasma, po, 10 mg/kg, administered orally, 10 mg/kg, read-out: Cmax) was 1050 ng/mL and the AUC(0-t) (male, SD, rat, plasma, po, 10 mg/kg, orally, 10 mg/kg, Mean, read-out: AUC(0-t)) was 6770 ng·h/mL. The Cmax (male, SD, rat, plasma, po, 10 mg/kg, orally, 10 mg/kg, Mean, read-out: Cmax) was 1050 ng/mL, the MRT last (male, SD, rat, plasma, po, 10 mg/kg, orally, 10 mg/kg, Mean, read-out: MRT(0-t)) was 5.38 h and the half-life (male, SD, rat, plasma, po, 10 mg/kg, orally, 10 mg/kg, Mean, read-out: t½ (converted)) was 3.86 h. The AUC(0-t) (male, SD, rat, plasma, po, 10 mg/kg, orally, 10 mg/kg, individual animals 201-203, read-out: AUC(0-t)) was 6140 ng·h/mL, the Cmax (male, SD, rat, plasma, po, 10 mg/kg, orally, 10 mg/kg, individual animals 201-203, read-out: Cmax) was 977 ng/mL and the MRT last (male, SD, rat, plasma, po, 10 mg/kg, orally, 10 mg/kg, individual animals 201-203, read-out: MRT(0-t)) was 5.61 h. The half-life (male, SD, rat, plasma, po, 10 mg/kg, orally, 10 mg/kg, individual animals 201-203, read-out: t½ (converted)) was 3.7 h, the AUC(0-inf) [5] was 6860 ng·h/mL and the MRT [5] was 5.68 h. The AUC(0-inf) [6] was 6210 ng·h/mL, the MRT [6] was 5.9 h and the Tmax (male, rat, plasma, po, SD rats, orally, 10 mg/kg, Mean) was 2 h. For the same compound, the bioavailability (male, rat, plasma, SD rats, oral 10 mg/kg versus intravenous 5 mg/kg) was 23.5%.
